Experiments:
Type in all cases: in vivo
[1] = tested on: foxtail, green (green foxtail, Setaria viridis); assay: Test A postemergence, green foxtail; conditions: approximately 10 d
From the text: (§1) Seeds of plant species selected from barnyardgrass (Echinochloa crus-galli), kochia (Kochia scoparia), ragweed (common ragweed, Ambrosia elatior), ryegrass, Italian (Italian ryegrass, Lolium multiflorum), foxtail, green (green foxtail, Setaria viridis), and pigweed (Amaranthus retroflexus) were planted into a blend of loam soil and sand and treated preemergence with a directed soil spray using test chemicals formulated in a non-phytotoxic solvent mixture which included a surfactant. At the same time, plants selected from these weed species and also wheat (Triticum aestivum), corn (Zea mays), blackgrass (Alopecurus myosuroides), and galium (catchweed bedstraw, Galium aparine) were planted in pots containing the same blend of loam soil and sand and treated with postemergence applications of test chemicals formulated in the same manner. Plants ranged in height from 2 to 10 cm and were in the one- to two-leaf stage for the postemergence treatment. Treated plants and untreated controls were maintained in a greenhouse for approximately 10 d, after which time all treated plants were compared to untreated controls and visually evaluated for injury. Plant response ratings, summarized in Table A, are based on a 0 to 100 scale where 0 is no effect and 100 is complete control. A dash (-) response means no test result.

[2] = tested on: foxtail, green (green foxtail, Setaria viridis); assay: Test A preemergence, green foxtail; conditions: approximately 10 d
From the text: as §1

[3] = tested on: barnyardgrass (Echinochloa crus-galli); assay: Test A preemergence, barnyardgrass; conditions: approximately 10 d
Method in brief: (§2)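 Seeds in a loam soil–sand blend got a directed preemergence soil spray, and plants in the same blend at 2–10 cm (one- to two-leaf stage) got a postemergence spray, using chemicals in a non-phytotoxic solvent mixture with surfactant. After about 10 d in a greenhouse, injury was scored visually versus untreated controls on a 0–100 scale.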

[4] = tested on: wheat (Triticum aestivum); assay: Test A postemergence, wheat; conditions: approximately 10 d
Method in brief: as §2

[5] = tested on: ragweed (common ragweed, Ambrosia elatior); assay: Test A postemergence, ragweed; conditions: approximately 10 d
Method in brief: as §2

corn (Zea mays) = assay: Test A postemergence, corn; conditions: approximately 10 d
Method in brief: as §2

[6] = tested on: ducksalad (Heteranthera limosa); assay: Test B flooded paddy test, ducksalad; conditions: 250 g ai/ha, Flood (paddy water), 13 to 15 d
Method in brief: (§3)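 Plants grown to the 2-leaf stage. At treatment, pots were flooded to 3 cm above the soil, compound was applied directly to the paddy water, and that depth was held throughout. After 13 to 15 d in the greenhouse, response was rated visually against controls on a 0 (no effect) to 100 (complete control) scale.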

[7] = tested on: galium (catchweed bedstraw, Galium aparine); assay: Test A postemergence, galium; conditions: approximately 10 d
Method in brief: as §2

kochia (Kochia scoparia) [8] = assay: Test A preemergence, kochia; conditions: approximately 10 d
Method in brief: as §2

[9] = tested on: sedge, umbrella (small-flower umbrella sedge, Cyperus difformis); assay: Test B flooded paddy test, umbrella sedge; conditions: 250 g ai/ha, Flood (paddy water), 13 to 15 d
Method in brief: as §3

[10] = tested on: ryegrass, Italian (Italian ryegrass, Lolium multiflorum); assay: Test A preemergence, Italian ryegrass; conditions: approximately 10 d
Method in brief: as §2

[11] = tested on: barnyardgrass (Echinochloa crus-galli); assay: Test B flooded paddy test, barnyardgrass; conditions: 250 g ai/ha, Flood (paddy water), 13 to 15 d
Method in brief: as §3

kochia (Kochia scoparia) [12] = assay: Test A postemergence, kochia; conditions: approximately 10 d
Method in brief: as §2

[13] = tested on: ryegrass, Italian (Italian ryegrass, Lolium multiflorum); assay: Test A postemergence, Italian ryegrass; conditions: approximately 10 d
Method in brief: as §2

[14] = tested on: ragweed (common ragweed, Ambrosia elatior); assay: Test A preemergence, ragweed; conditions: approximately 10 d
Method in brief: as §2

[15] = tested on: pigweed (Amaranthus retroflexus); assay: Test A preemergence, pigweed; conditions: approximately 10 d
Method in brief: as §2

rice (Oryza sativa) = assay: Test B flooded paddy test, rice; conditions: 250 g ai/ha, Flood (paddy water), 13 to 15 d
Method in brief: as §3

[16] = tested on: barnyardgrass (Echinochloa crus-galli); assay: Test A postemergence, barnyardgrass; conditions: approximately 10 d
Method in brief: as §2

[17] = tested on: pigweed (Amaranthus retroflexus); assay: Test A postemergence, pigweed; conditions: approximately 10 d
Method in brief: as §2

[18] = tested on: blackgrass (Alopecurus myosuroides); assay: Test A postemergence, blackgrass; conditions: approximately 10 d
Method in brief: as §2

Foxtail, Giant [19] = assay: Test A preemergence, giant foxtail; conditions: approximately 10 d
Foxtail, Giant [20] = assay: Test A postemergence, giant foxtail; conditions: approximately 10 d

Row | SMILES | Plant response rating (0 to 100 scale, 0 is no effect, 100 is complete control) ([3]; 31 g ai/ha) | Plant response rating (0 to 100 scale, 0 is no effect, 100 is complete control) ([3]; 125 g ai/ha) | Plant response rating (0 to 100 scale, 0 is no effect, 100 is complete control) ([4]; 31 g ai/ha) | Plant response rating (0 to 100 scale, 0 is no effect, 100 is complete control) ([4]; 125 g ai/ha) | Plant response rating (0 to 100 scale, 0 is no effect, 100 is complete control) ([5]; 31 g ai/ha) | Plant response rating (0 to 100 scale, 0 is no effect, 100 is complete control) ([5]; 125 g ai/ha) | Plant response rating (0 to 100 scale, 0 is no effect, 100 is complete control) (corn (Zea mays); 31 g ai/ha) | Plant response rating (0 to 100 scale, 0 is no effect, 100 is complete control) (corn (Zea mays); 125 g ai/ha) | Plant response rating (scale of 0 to 100, 0 is no effect, 100 is complete control) [6] | Plant response rating (0 to 100 scale, 0 is no effect, 100 is complete control) ([7]; 31 g ai/ha) | Plant response rating (0 to 100 scale, 0 is no effect, 100 is complete control) ([7]; 125 g ai/ha) | Plant response rating (0 to 100 scale, 0 is no effect, 100 is complete control) (kochia (Kochia scoparia) [8]; 31 g ai/ha) | Plant response rating (0 to 100 scale, 0 is no effect, 100 is complete control) (kochia (Kochia scoparia) [8]; 125 g ai/ha) | Plant response rating (scale of 0 to 100, 0 is no effect, 100 is complete control) [9] | Plant response rating (0 to 100 scale, 0 is no effect, 100 is complete control) ([10]; 31 g ai/ha) | Plant response rating (0 to 100 scale, 0 is no effect, 100 is complete control) ([10]; 125 g ai/ha) | Plant response rating (scale of 0 to 100, 0 is no effect, 100 is complete control) [11] | Plant response rating (0 to 100 scale, 0 is no effect, 100 is complete control) (kochia (Kochia scoparia) [12]; 31 g ai/ha) | Plant response rating (0 to 100 scale, 0 is no effect, 100 is complete control) (kochia (Kochia scoparia) [12]; 125 g ai/ha) | Plant response rating (0 to 100 scale, 0 is no effect, 100 is complete control) ([13]; 31 g ai/ha) | other results
1 | CN1C[C@H](c2ccc(C(F)(F)F)cc2)[C@@H](C(=O)Nc2cccc(F)c2F)C1=NN [Compound 2, (3R,4S)—N-(2,3-difluorophenyl)-2-hydrazinylidene-1-methyl-4-[4-(trifluoromethyl)phenyl]-3-pyrrolidinecarboxamide] | 70 | 90 | 0 | 0 | 0 | 0 | 10 | 10 | 0 | 60 | 60 | 0 | 60 | 50 | 0 | 0 | 40 | 0 | 0 | 0 | Plant response rating (0 to 100 scale, 0 is no effect, 100 is complete control) ([1]; 31 g ai/ha): 30; Plant response rating (0 to 100 scale, 0 is no effect, 100 is complete control) ([1]; 125 g ai/ha): 70; Plant response rating (0 to 100 scale, 0 is no effect, 100 is complete control) ([2]; 31 g ai/ha): 70; Plant response rating (0 to 100 scale, 0 is no effect, 100 is complete control) ([2]; 125 g ai/ha): 100; Plant response rating (0 to 100 scale, 0 is no effect, 100 is complete control) ([13]; 125 g ai/ha): 30; Plant response rating (0 to 100 scale, 0 is no effect, 100 is complete control) ([14]; 31 g ai/ha): 0; Plant response rating (0 to 100 scale, 0 is no effect, 100 is complete control) ([14]; 125 g ai/ha): 40; Plant response rating (0 to 100 scale, 0 is no effect, 100 is complete control) ([15]; 31 g ai/ha): 0; Plant response rating (0 to 100 scale, 0 is no effect, 100 is complete control) ([15]; 125 g ai/ha): 80; Plant response rating (scale of 0 to 100, 0 is no effect, 100 is complete control) (rice (Oryza sativa)): 0; Plant response rating (0 to 100 scale, 0 is no effect, 100 is complete control) ([16]; 31 g ai/ha): 20; Plant response rating (0 to 100 scale, 0 is no effect, 100 is complete control) ([16]; 125 g ai/ha): 60; Plant response rating (0 to 100 scale, 0 is no effect, 100 is complete control) ([17]; 31 g ai/ha): 0; Plant response rating (0 to 100 scale, 0 is no effect, 100 is complete control) ([17]; 125 g ai/ha): 40; Plant response rating (0 to 100 scale, 0 is no effect, 100 is complete control) ([18]; 31 g ai/ha): 0; Plant response rating (0 to 100 scale, 0 is no effect, 100 is complete control) ([18]; 125 g ai/ha): 30
2 | CC(=O)NN=C1[C@H](C(=O)Nc2cccc(F)c2F)[C@@H](c2ccc(C(F)(F)F)cc2)CN1C (relative stereo) [Compound 5] | 90 | 90 | 0 | 50 | 0 | 0 | 0 | 40 | 65 | 70 | 80 | 10 | 90 | 0 | 20 | 90 | 45 | 20 | 30 | 10 | Plant response rating (0 to 100 scale, 0 is no effect, 100 is complete control) (Foxtail, Giant [19]; 31 g ai/ha): 90; Plant response rating (0 to 100 scale, 0 is no effect, 100 is complete control) (Foxtail, Giant [19]; 125 g ai/ha): 90; Plant response rating (0 to 100 scale, 0 is no effect, 100 is complete control) (Foxtail, Giant [20]; 31 g ai/ha): 70; Plant response rating (0 to 100 scale, 0 is no effect, 100 is complete control) (Foxtail, Giant [20]; 125 g ai/ha): 80; Plant response rating (0 to 100 scale, 0 is no effect, 100 is complete control) ([13]; 125 g ai/ha): 80; Plant response rating (0 to 100 scale, 0 is no effect, 100 is complete control) ([14]; 31 g ai/ha): 0; Plant response rating (0 to 100 scale, 0 is no effect, 100 is complete control) ([14]; 125 g ai/ha): 70; Plant response rating (0 to 100 scale, 0 is no effect, 100 is complete control) ([15]; 31 g ai/ha): 70; Plant response rating (0 to 100 scale, 0 is no effect, 100 is complete control) ([15]; 125 g ai/ha): 80; Plant response rating (scale of 0 to 100, 0 is no effect, 100 is complete control) (rice (Oryza sativa)): 0; Plant response rating (0 to 100 scale, 0 is no effect, 100 is complete control) ([16]; 31 g ai/ha): 60; Plant response rating (0 to 100 scale, 0 is no effect, 100 is complete control) ([16]; 125 g ai/ha): 80; Plant response rating (0 to 100 scale, 0 is no effect, 100 is complete control) ([17]; 31 g ai/ha): 30; Plant response rating (0 to 100 scale, 0 is no effect, 100 is complete control) ([17]; 125 g ai/ha): 80; Plant response rating (0 to 100 scale, 0 is no effect, 100 is complete control) ([18]; 31 g ai/ha): 60; Plant response rating (0 to 100 scale, 0 is no effect, 100 is complete control) ([18]; 125 g ai/ha): 80

— US11357230B2, “Herbicidal amides” (FMC Corporation, priority 2017, dated 2022)
